In US20230157952A1, “METHOD FOR IMPROVING THE STABILITY OF A PHARMACEUTICAL COMPOSITION COMPRISING A HIGH PENETRATION DRUG, AND THE PHARMACEUTICAL COMPOSITION OBTAINED THEREFROM” (Techfields Inc., priority 2020, published 2023):
One block for each compound: values may come before it.

Assay: Effect of concentration on the stability of the solution (purity over time)
Conditions: for Stability of common ester over the concentrations tested: 0.01% to 10% (or higher) in 50% ethanol at 25° C.; for Purity (%) at Day 3 / Purity (%) at Day 7 / Purity (%) at hr 0 / Purity (%) at hr 24 / Purity(%) at Day 14 / Purity(%) at Day 21 / Purity(%) at Day 28: 25° C.

Stability of common ester over the concentrations tested: quite stable | Purity (%) at Day 3 (0.01 wt % in 50% ethanol): 97.4% | Purity (%) at Day 7 (0.01 wt % in 50% ethanol): 97.1% | Purity (%) at hr 0 (0.01 wt % in 50% ethanol): 98.4% | Purity (%) at hr 24 (0.01 wt % in 50% ethanol): 98.3% | Purity(%) at Day 14 (0.01 wt % in 50% ethanol): 96.5% | Purity(%) at Day 21 (0.01 wt % in 50% ethanol): 95.9% | Purity(%) at Day 28 (0.01 wt % in 50% ethanol): 95.1% | Purity (%) at Day 3 (0.1 wt % in 50% ethanol): 97.6% | Purity (%) at Day 7 (0.1 wt % in 50% ethanol): 97.3% | Purity (%) at hr 0 (0.1 wt % in 50% ethanol): 98.5% | Purity (%) at hr 24 (0.1 wt % in 50% ethanol): 98.4% | Purity(%) at Day 14 (0.1 wt % in 50% ethanol): 96.8% | Purity(%) at Day 21 (0.1 wt % in 50% ethanol): 96.5% | Purity(%) at Day 28 (0.1 wt % in 50% ethanol): 95.7% | Purity (%) at Day 3 (1 wt % in 50% ethanol): 97.9% | Purity (%) at Day 7 (1 wt % in 50% ethanol): 97.6% | Purity (%) at hr 0 (1 wt % in 50% ethanol): 98.7% | Purity (%) at hr 24 (1 wt % in 50% ethanol): 98.5% | Purity(%) at Day 14 (1 wt % in 50% ethanol): 97.2% | Purity(%) at Day 21 (1 wt % in 50% ethanol): 96.8% | Purity(%) at Day 28 (1 wt % in 50% ethanol): 96.1% | Purity (%) at Day 3 (3 wt % in 50% ethanol): 98.2% | Purity (%) at Day 7 (3 wt % in 50% ethanol): 97.8% | Purity (%) at hr 0 (3 wt % in 50% ethanol): 98.7% | Purity (%) at hr 24 (3 wt % in 50% ethanol): 98.6% | Purity(%) at Day 14 (3 wt % in 50% ethanol): 97.4% | Purity(%) at Day 21 (3 wt % in 50% ethanol): 97.0% | Purity(%) at Day 28 (3 wt % in 50% ethanol): 96.5% | Purity (%) at Day 3 (5 wt % in 50% ethanol): 98.5% | Purity (%) at Day 7 (5 wt % in 50% ethanol): 98.4% | Purity (%) at hr 0 (5 wt % in 50% ethanol): 98.7% | Purity (%) at hr 24 (5 wt % in 50% ethanol): 98.6% | Purity(%) at Day 14 (5 wt % in 50% ethanol): 98.2% | Purity(%) at Day 21 (5 wt % in 50% ethanol): 97.8% | Purity(%) at Day 28 (5 wt % in 50% ethanol): 97.1% | Purity (%) at Day 3 (10 wt % in 50% ethanol): 98.6% | Purity (%) at Day 7 (10 wt % in 50% ethanol): 98.5% | Purity (%) at hr 0 (10 wt % in 50% ethanol): 98.8% | Purity (%) at hr 24 (10 wt % in 50% ethanol): 98.7% | Purity(%) at Day 14 (10 wt % in 50% ethanol): 98.3% | Purity(%) at Day 21 (10 wt % in 50% ethanol): 97.9% | Purity(%) at Day 28 (10 wt % in 50% ethanol): 97.3%
Compound: CC(C)OC(=O)C(N)Cc1ccccc1 (centres unmarked) [Isopropyl 2-amino-3-phenylpropanoate, reference compound]

Stability of common ester over the concentrations tested: very stable | Purity (%) at Day 3 (0.01 wt % in 50% ethanol): 98.1% | Purity (%) at Day 7 (0.01 wt % in 50% ethanol): 98.3% | Purity (%) at hr 0 (0.01 wt % in 50% ethanol): 98.4% | Purity (%) at hr 24 (0.01 wt % in 50% ethanol): 98.3% | Purity(%) at Day 14 (0.01 wt % in 50% ethanol): 98.2% | Purity(%) at Day 28 (0.01 wt % in 50% ethanol): 98.2% | Purity (%) at Day 3 (0.1 wt % in 50% ethanol): 98.4% | Purity (%) at Day 7 (0.1 wt % in 50% ethanol): 98.4% | Purity (%) at hr 0 (0.1 wt % in 50% ethanol): 98.4% | Purity (%) at hr 24 (0.1 wt % in 50% ethanol): 98.5% | Purity(%) at Day 14 (0.1 wt % in 50% ethanol): 98.3% | Purity(%) at Day 28 (0.1 wt % in 50% ethanol): 98.3% | Purity (%) at Day 3 (1 wt % in 50% ethanol): 98.5% | Purity (%) at Day 7 (1 wt % in 50% ethanol): 98.4% | Purity (%) at hr 0 (1 wt % in 50% ethanol): 98.5% | Purity (%) at hr 24 (1 wt % in 50% ethanol): 98.4% | Purity(%) at Day 14 (1 wt % in 50% ethanol): 98.3% | Purity(%) at Day 28 (1 wt % in 50% ethanol): 98.3% | Purity (%) at Day 3 (3 wt % in 50% ethanol): 98.4% | Purity (%) at Day 7 (3 wt % in 50% ethanol): 98.4% | Purity (%) at hr 0 (3 wt % in 50% ethanol): 98.4% | Purity (%) at hr 24 (3 wt % in 50% ethanol): 98.6% | Purity(%) at Day 14 (3 wt % in 50% ethanol): 98.4% | Purity(%) at Day 28 (3 wt % in 50% ethanol): 98.4% | Purity (%) at Day 3 (5 wt % in 50% ethanol): 98.7% | Purity (%) at Day 7 (5 wt % in 50% ethanol): 98.4% | Purity (%) at hr 0 (5 wt % in 50% ethanol): 98.5% | Purity (%) at hr 24 (5 wt % in 50% ethanol): 98.4% | Purity(%) at Day 14 (5 wt % in 50% ethanol): 98.4% | Purity(%) at Day 28 (5 wt % in 50% ethanol): 98.4% | Purity (%) at Day 3 (10 wt % in 50% ethanol): 98.4% | Purity (%) at Day 7 (10 wt % in 50% ethanol): 98.4% | Purity (%) at hr 0 (10 wt % in 50% ethanol): 98.5% | Purity (%) at hr 24 (10 wt % in 50% ethanol): 98.8% | Purity(%) at Day 14 (10 wt % in 50% ethanol): 98.4% | Purity(%) at Day 28 (10 wt % in 50% ethanol): 98.4%
Compound: CC(C)OC(=O)c1ccccc1 [Isopropyl benzoate, reference compound]
